Assay results: patent US7964556B1, “Antimicrobial peptides and use thereof” (Toagosei Co., Ltd, priority 2004, dated 2011)
Read-outs that look alike come from different tables or passages of the source. Where a SMILES comes first, the peptide text is derived from it.

Legend:
Escherichia coli = type: cell-based
Method: (§1) Regarding the antimicrobial peptide in samples 1 to 14 and the comparative sample 1, the antimicrobial activities (minimum inhibitory concentration: MIC) with respect to gram-negative bacteria (Escherichia coli) and gram-positive bacteria (Staphylococcus aureus) were determined, as described below, by a liquid medium dilution technique using a 96-well microplate. First, a drug (synthesized peptide) solution having a concentration of 40 times of the highest test concentration was prepared using sterile distilled water, and thereafter liquid-bouillon mediums (“NUTRIENT BROTH Dehydrated” manufactured by DIFCO) having peptide concentrations of 200, 100, 50, 25, 12.5, 6.25, 3.13, 1.56 and 0.78 μM were produced respectively. The produced liquid-bouillon mediums including the peptide of each concentration were then fed to the 96-well microplate at 100 μL a time.
(§2) At the same time, test bacteria cultured for 18 hours at 37° C. on an agar plate (“Muller Hinton Agar” manufactured by DIFCO) were gathered by scratching with a loop, and then suspended in a sterilized physiological saline. Bacterial suspension 5 μL prepared at an equivalent of 2×10^7 cells/mL was respectively inoculated (number of bacteria to be tested: approximately 1×10^6 cells/mL) onto the above-described liquid-bouillon mediums including the peptide of each concentration and fed to each well of the above-described microplate. After inoculation, the microplate was then incubated in an incubator at 37° C., and the presence of bacteria was evaluated based on the turbidity 24 hours later. The minimum drug concentration (peptide concentration), in which an increased in turbidity caused by bacteria was not detected at the time of measurement, was defined as MIC (minimum inhibitory concentration) (unit: μM) in the present embodiment.

Staphylococcus aureus = type: cell-based; conditions: for antimicrobial activities against gram-positive bacteria (S. aureus), in words: summary of Table 2
Method: as §1, §2

[1] = liquid-bouillon medium (Nutrient Broth), 37° C., turbidity after 24 hours

| SMILES | Antimicrobial Activities (MIC) E. coli (Escherichia coli; [1]) [µM] | Antimicrobial Activities (MIC) S. aureus (Staphylococcus aureus; [1]) [µM] | antimicrobial activities against gram-positive bacteria (S. aureus), in words (Staphylococcus aureus) | Antimicrobial Activities (MIC) E. coli (Escherichia coli; 24 h) [µM] | Antimicrobial Activities (MIC) S. aureus (Staphylococcus aureus; 24 h) [µM] | antimicrobial activities against E. coli, in words (Escherichia coli; summary of Table 2) |
| --- | --- | --- | --- | --- | --- | --- |
| CC[C@H](C)[C@H](NC(=O)[C@H](CCC(N)=O)NC(=O)[C@@H](NC(=O)[C@H](CCCCN)NC(=O)[C@@H](NC(=O)[C@@H](NC(=O)[C@@H](NC(=O)[C@H](CCCNC(=N)N)NC(=O)[C@H](CCCCN)NC(=O)[C@H](CCCCN)NC(=O)[C@H](CCCNC(=N)N)NC(=O)[C@@H]1CCCN1C(=O)[C@@H]1CCCN1)[C@@H](C)O)C(C)C)C(C)C)C(C)C)C(=O)N[C@H](C(=O)N[C@@H](CC(N)=O)C(=O)N[C@@H](CCCCN)C(=O)N[C@@H](CCCCN)C(N)=O)[C@@H](C)CC [Sample 13, PPRKKRTVVKVQIINKK] (H-PPRKKRTVVKVQIINKK-NH2) | 3.13 | 0.78 | particularly high antimicrobial activities | – | – | – |
| CC(C)[C@H](NC(=O)[C@H](C)NC(=O)[C@@H](NC(=O)[C@H](CCCCN)NC(=O)[C@@H](N)CCCCN)C(C)C)C(=O)N[C@H](C(=O)N[C@@H](CCCNC(=N)N)C(N)=O)C(C)C [Sample 1, KKVAVVR] (H-KKVAVVR-NH2) | – | – | – | 200 | 50 | – |
| CC(C)[C@H](NC(=O)[C@H](C)NC(=O)[C@@H](NC(=O)[C@H](CCCCN)NC(=O)[C@H](CCCCN)NC(=O)[C@@H](NC(=O)[C@H](CCCCN)NC(=O)[C@H](CCCNC(=N)N)NC(=O)[C@H](CCCCN)NC(=O)[C@H](CCCCN)NC(=O)[C@H](CCCCN)NC(=O)[C@@H](N)CCCNC(=N)N)C(C)C)C(C)C)C(=O)N[C@H](C(=O)N[C@@H](CCCNC(=N)N)C(N)=O)C(C)C [Sample 7, RKKKRKVKKVAVVR] (H-RKKKRKVKKVAVVR-NH2) | – | – | particularly high antimicrobial activities | 6.25 | 3.13 | – |
| CC(C)[C@H](NC(=O)[C@H](C)NC(=O)[C@@H](NC(=O)[C@H](CCCCN)NC(=O)[C@H](CCCCN)NC(=O)[C@@H](NC(=O)[C@H](CCCNC(=N)N)NC(=O)[C@@H](NC(=O)[C@@H](NC(=O)[C@H](C)NC(=O)[C@@H](NC(=O)[C@H](CCCCN)NC(=O)[C@@H](N)CCCCN)C(C)C)C(C)C)C(C)C)[C@@H](C)O)C(C)C)C(=O)N[C@H](C(=O)N[C@@H](CCCNC(=N)N)C(=O)N[C@H](C(N)=O)[C@@H](C)O)C(C)C [Sample 8, KKVAVVRTKKVAVVRT] (H-KKVAVVRTKKVAVVRT-NH2) | – | – | particularly high antimicrobial activities | 50 | 6.25 | – |
| CC[C@H](C)[C@H](NC(=O)[C@H](CCC(N)=O)NC(=O)[C@@H](NC(=O)[C@H](CCCCN)NC(=O)[C@H](CCCCN)NC(=O)[C@H](CCCCN)NC(=O)[C@H](CC(N)=O)NC(=O)[C@@H](NC(=O)[C@@H](NC(=O)[C@H](CCC(N)=O)NC(=O)[C@@H](NC(=O)[C@@H](N)CCCCN)C(C)C)[C@@H](C)CC)[C@@H](C)CC)C(C)C)C(=O)N[C@H](C(=O)N[C@@H](CC(N)=O)C(=O)N[C@@H](CCCCN)C(=O)N[C@@H](CCCCN)C(N)=O)[C@@H](C)CC [Sample 6, KVQIINKKKVQIINKK] (H-KVQIINKKKVQIINKK-NH2) | – | – | particularly high antimicrobial activities | 6.25 | 1.56 | – |
| CC[C@H](C)[C@H](NC(=O)[C@H](CCC(N)=O)NC(=O)[C@@H](NC(=O)[C@H](CCCNC(=N)N)NC(=O)[C@H](CCC(N)=O)NC(=O)[C@H](CC(C)C)NC(=O)[C@H](CCCCN)NC(=O)[C@H](CCCNC(=N)N)NC(=O)[C@H](CCCCN)NC(=O)[C@@H](N)CC(C)C)C(C)C)C(=O)N[C@H](C(=O)N[C@@H](Cc1ccc(O)cc1)C(=O)N[C@@H](CCCCN)C(N)=O)C(C)C [Sample 3, LKRKLQRVQIVYK] (H-LKRKLQRVQIVYK-NH2) | – | – | particularly high antimicrobial activities | 6.25 | 3.13 | – |
| CC[C@H](C)[C@H](NC(=O)[C@H](CCC(N)=O)NC(=O)[C@@H](NC(=O)[C@@H](N)CCCCN)C(C)C)C(=O)N[C@H](C(=O)N[C@@H](CC(N)=O)C(=O)N[C@@H](CCCCN)C(=O)N[C@@H](CCCCN)C(=O)N[C@@H](CC(C)C)C(=O)N[C@@H](CCSC)C(=O)N[C@@H](Cc1c[nH]c2ccccc12)C(=O)N[C@@H](Cc1c[nH]c2ccccc12)C(=O)N[C@@H](CC(C)C)C(=O)N[C@@H](CC(C)C)C(N)=O)[C@@H](C)CC [Sample 12, KVQIINKKLMWWLL] (H-KVQIINKKLMWWLL-NH2) | – | – | particularly high antimicrobial activities | 12.5 | 3.13 | – |
| CC[C@H](C)[C@H](NC(=O)[C@H](CCC(N)=O)NC(=O)[C@@H](NC(=O)[C@@H](N)CCCCN)C(C)C)C(=O)N[C@H](C(=O)N[C@@H](CC(N)=O)C(=O)N[C@@H](CCCCN)C(=O)N[C@@H](CCCCN)C(=O)N[C@@H](CC(C)C)C(=O)N[C@@H](CC(=O)O)C(=O)N[C@H](C(=O)N[C@@H](CO)C(=O)N[C@@H](CC(N)=O)C(=O)N[C@@H](CC(C)C)C(=O)N[C@@H](CCSC)C(=O)N[C@@H](Cc1c[nH]c2ccccc12)C(=O)N[C@@H](Cc1c[nH]c2ccccc12)C(=O)N[C@@H](CC(C)C)C(=O)N[C@@H](CC(C)C)C(N)=O)C(C)C)[C@@H](C)CC [Sample 11, KVQIINKKLDVSNLMWWLL] (H-KVQIINKKLDVSNLMWWLL-NH2) | – | – | particularly high antimicrobial activities | 25 | 12.5 | – |
| CC[C@H](C)[C@H](NC(=O)[C@H](CCC(N)=O)NC(=O)[C@@H](NC(=O)[C@@H](N)CCCCN)C(C)C)C(=O)N[C@H](C(=O)N[C@@H](CC(N)=O)C(=O)N[C@@H](CCCCN)C(=O)N[C@@H](CCCCN)C(N)=O)[C@@H](C)CC [Sample 2, KVQIINKK] (H-KVQIINKK-NH2; N-terminus assumed) | – | – | – | 200 | 200 | – |
| CC(C)C[C@H](NC(=O)[C@H](CCCNC(=N)N)NC(=O)[C@H](CCC(=O)O)NC(=O)[C@H](CC(C)C)NC(=O)[C@@H]1CCCN1C(=O)[C@@H]1CCCN1C(=O)[C@@H](N)CC(C)C)C(=O)N[C@H](C(=O)N[C@@H](CC(C)C)C(=O)N[C@@H](CC(=O)O)C(N)=O)[C@@H](C)O [Comparative Sample 1, LPPLERLTLD, reference compound] (H-LPPLERLTLD-NH2) | >200 | >200 | no antimicrobial activity | – | – | no antimicrobial activity |
| CC[C@H](C)[C@H](NC(=O)[C@H](CCC(N)=O)NC(=O)[C@@H](NC(=O)[C@H](CCCNC(=N)N)NC(=O)[C@H](CCC(N)=O)NC(=O)[C@H](CC(C)C)NC(=O)[C@H](CCCCN)NC(=O)[C@H](CCCNC(=N)N)NC(=O)[C@H](CCCCN)NC(=O)[C@@H](N)CC(C)C)C(C)C)C(=O)N[C@H](C(=O)N[C@@H](CC(N)=O)C(=O)N[C@@H](CCCCN)C(N)=O)[C@@H](C)CC [Sample 4, LKRKLQRVQIINK] (H-LKRKLQRVQIINK-NH2) | – | – | particularly high antimicrobial activities | 100 | 6.25 | – |
| CC(C)[C@H](NC(=O)[C@H](C)NC(=O)[C@@H](NC(=O)[C@H](CCCCN)NC(=O)[C@H](CCCCN)NC(=O)[C@H](CCCNC(=N)N)NC(=O)[C@@H](NC(=O)[C@@H](NC(=O)[C@H](C)NC(=O)[C@@H](NC(=O)[C@H](CCCCN)NC(=O)[C@@H](N)CCCCN)C(C)C)C(C)C)C(C)C)C(C)C)C(=O)N[C@H](C(=O)N[C@@H](CCCNC(=N)N)C(N)=O)C(C)C [Sample 5, KKVAVVRKKVAVVR] (H-KKVAVVRKKVAVVR-NH2) | – | – | particularly high antimicrobial activities | 100 | 12.5 | – |
| CC[C@H](C)[C@H](NC(=O)[C@H](CCC(N)=O)NC(=O)[C@@H](NC(=O)[C@H](CCCCN)NC(=O)[C@H](Cc1ccc(O)cc1)NC(=O)[C@@H](NC(=O)[C@@H](NC(=O)[C@H](CCC(N)=O)NC(=O)[C@@H](N)C(C)C)[C@@H](C)CC)C(C)C)C(C)C)C(=O)N[C@H](C(=O)N[C@@H](Cc1ccc(O)cc1)C(=O)N[C@@H](CCCCN)C(N)=O)C(C)C [Sample 14, VQIVYKVQIVYK] (H-VQIVYKVQIVYK-NH2) | – | – | particularly high antimicrobial activities | 50 | 25 | – |
